Our source for the isozyme selectivity and IC50 values is US5668152A, “Protein kinase C inhibitors” (priority 1995, dated 1997).

Entries after “also recorded” stand apart in the source; their conditions may differ. Like-named read-outs stand apart in the source and are kept apart here.

One assay deals with PKC isozymes. The following applies: cited from earlier work.
The target of another assay is T1, protein kinase C zeta (Homo sapiens, UniProt Q05513).
T1 sequence (Q05513 1-592): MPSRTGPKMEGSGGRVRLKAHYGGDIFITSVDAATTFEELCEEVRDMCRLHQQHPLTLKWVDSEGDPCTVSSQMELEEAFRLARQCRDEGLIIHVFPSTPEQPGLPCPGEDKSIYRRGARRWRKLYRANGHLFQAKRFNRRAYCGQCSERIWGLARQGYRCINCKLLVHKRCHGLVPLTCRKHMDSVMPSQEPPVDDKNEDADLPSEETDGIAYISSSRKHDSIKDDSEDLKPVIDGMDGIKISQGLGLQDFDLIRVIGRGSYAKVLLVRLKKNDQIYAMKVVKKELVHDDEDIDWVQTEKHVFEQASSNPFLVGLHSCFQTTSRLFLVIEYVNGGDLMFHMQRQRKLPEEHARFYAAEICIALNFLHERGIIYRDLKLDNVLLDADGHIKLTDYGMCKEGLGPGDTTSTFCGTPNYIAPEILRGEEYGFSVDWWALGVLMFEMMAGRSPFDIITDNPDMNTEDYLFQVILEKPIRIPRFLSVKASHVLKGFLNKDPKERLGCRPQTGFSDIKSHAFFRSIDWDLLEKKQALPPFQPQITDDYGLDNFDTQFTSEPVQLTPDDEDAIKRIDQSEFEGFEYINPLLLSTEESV
In words: PKC Enzyme assay, zeta isozyme. The following applies: PKC zeta; 30 μM ATP, 30° C., 10 minutes; read-out: IC50 ζ. It counts as biochemical.

In another assay the target is protein kinase C beta-2 (Homo sapiens, UniProt P05771). In words: PKC Enzyme assay, beta II isozyme. To be noted: PKC beta-2; 30 μM ATP, 30° C., 10 minutes; read-out: IC50 β2. The assay is classed as biochemical.
Sequence of protein kinase C beta-2 (P05771 1-673 isoform P05771-2): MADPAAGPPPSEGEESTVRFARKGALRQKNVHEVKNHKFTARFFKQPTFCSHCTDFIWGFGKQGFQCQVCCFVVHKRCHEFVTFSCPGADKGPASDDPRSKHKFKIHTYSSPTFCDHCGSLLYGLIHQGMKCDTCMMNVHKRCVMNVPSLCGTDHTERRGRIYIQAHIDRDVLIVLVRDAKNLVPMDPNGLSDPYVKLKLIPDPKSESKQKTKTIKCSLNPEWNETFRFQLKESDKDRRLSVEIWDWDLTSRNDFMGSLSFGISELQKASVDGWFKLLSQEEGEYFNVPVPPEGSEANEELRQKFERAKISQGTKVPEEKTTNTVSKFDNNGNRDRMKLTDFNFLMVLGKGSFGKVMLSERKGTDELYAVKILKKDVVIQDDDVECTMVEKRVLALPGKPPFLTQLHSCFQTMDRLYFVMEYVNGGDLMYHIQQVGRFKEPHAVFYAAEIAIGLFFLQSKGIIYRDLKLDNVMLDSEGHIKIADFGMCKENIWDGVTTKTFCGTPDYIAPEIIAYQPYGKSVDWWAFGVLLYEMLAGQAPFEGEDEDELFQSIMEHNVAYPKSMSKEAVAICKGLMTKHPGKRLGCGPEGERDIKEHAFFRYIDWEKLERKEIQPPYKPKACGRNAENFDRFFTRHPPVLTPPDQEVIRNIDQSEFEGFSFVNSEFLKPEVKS
The target in a further assay is protein kinase C gamma (Homo sapiens, UniProt P05129). In words: PKC Enzyme assay, gamma isozyme. The assay is classed as biochemical. The following applies: PKC gamma; 30 μM ATP, 30° C., 10 minutes; read-out: IC50 γ.
Another assay has as its target protein kinase C delta (Homo sapiens, UniProt Q05655). In words: biochemical. The following applies: PKC delta; 30 μM ATP, 30° C., 10 minutes; read-out: IC50 δ.
The next assay addresses protein kinase C alpha (Homo sapiens, UniProt P17252). Description: PKC Enzyme assay, alpha isozyme. The assay is classed as biochemical. To be noted: PKC alpha; 30 μM ATP, 30° C., 10 minutes; read-out: IC50 α.
A further assay concerns the target protein kinase C eta (Homo sapiens, UniProt P24723). Description: PKC Enzyme assay, eta isozyme. The assay is classed as biochemical. The following applies: PKC eta; 30 μM ATP, 30° C., 10 minutes; read-out: IC50 η.
For another assay, the target named is T2, protein kinase C epsilon (Homo sapiens, UniProt Q02156).
T2 sequence (Q02156 1-737): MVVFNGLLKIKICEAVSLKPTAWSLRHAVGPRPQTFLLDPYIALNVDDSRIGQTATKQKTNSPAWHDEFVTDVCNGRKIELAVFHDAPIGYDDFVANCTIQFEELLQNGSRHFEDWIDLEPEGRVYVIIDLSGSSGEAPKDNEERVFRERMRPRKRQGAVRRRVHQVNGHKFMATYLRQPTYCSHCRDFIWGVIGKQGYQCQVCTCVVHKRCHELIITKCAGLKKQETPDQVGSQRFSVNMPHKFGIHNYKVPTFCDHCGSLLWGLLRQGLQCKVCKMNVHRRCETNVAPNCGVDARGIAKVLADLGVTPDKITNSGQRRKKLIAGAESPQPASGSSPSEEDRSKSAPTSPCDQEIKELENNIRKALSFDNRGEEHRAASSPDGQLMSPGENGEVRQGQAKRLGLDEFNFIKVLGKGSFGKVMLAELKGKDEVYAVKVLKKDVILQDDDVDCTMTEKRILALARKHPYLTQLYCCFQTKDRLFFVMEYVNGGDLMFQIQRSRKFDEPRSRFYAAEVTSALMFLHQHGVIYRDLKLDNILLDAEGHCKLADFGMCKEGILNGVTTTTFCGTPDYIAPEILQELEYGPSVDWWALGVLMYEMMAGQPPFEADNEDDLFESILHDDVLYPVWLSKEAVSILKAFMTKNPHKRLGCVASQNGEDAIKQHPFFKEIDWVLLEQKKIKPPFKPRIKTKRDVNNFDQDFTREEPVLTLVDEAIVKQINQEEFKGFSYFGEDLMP
Description: PKC Enzyme assay, epsilon isozyme. It counts as biochemical. To be noted: PKC epsilon; 30 μM ATP, 30° C., 10 minutes; read-out: IC50 ε.

The target of the next assay is protein kinase C beta-1 (Homo sapiens, UniProt P05771). In words: PKC Enzyme assay, beta I isozyme. It counts as biochemical. To be noted: PKC beta-1; 30 μM ATP, 30° C., 10 minutes; read-out: IC50 β1.
Sequence of protein kinase C beta-1 (P05771 whole entry): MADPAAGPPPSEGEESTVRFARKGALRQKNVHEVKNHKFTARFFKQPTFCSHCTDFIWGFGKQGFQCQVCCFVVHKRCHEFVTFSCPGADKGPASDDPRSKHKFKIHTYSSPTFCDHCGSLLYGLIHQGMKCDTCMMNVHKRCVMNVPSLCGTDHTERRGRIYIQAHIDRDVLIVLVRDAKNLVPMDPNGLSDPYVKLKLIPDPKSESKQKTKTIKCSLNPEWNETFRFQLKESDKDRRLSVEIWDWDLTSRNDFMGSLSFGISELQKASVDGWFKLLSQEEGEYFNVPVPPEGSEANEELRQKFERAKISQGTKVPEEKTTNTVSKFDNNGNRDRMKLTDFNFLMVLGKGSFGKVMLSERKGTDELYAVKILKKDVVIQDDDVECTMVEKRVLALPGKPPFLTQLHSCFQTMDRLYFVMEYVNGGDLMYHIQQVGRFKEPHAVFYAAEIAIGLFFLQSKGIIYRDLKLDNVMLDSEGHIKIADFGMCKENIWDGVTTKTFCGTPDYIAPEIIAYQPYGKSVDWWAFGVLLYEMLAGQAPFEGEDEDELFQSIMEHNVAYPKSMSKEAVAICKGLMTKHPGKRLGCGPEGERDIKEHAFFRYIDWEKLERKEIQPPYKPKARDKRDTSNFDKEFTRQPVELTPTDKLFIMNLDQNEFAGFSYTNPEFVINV

Sequence of protein kinase C eta (P24723 whole entry): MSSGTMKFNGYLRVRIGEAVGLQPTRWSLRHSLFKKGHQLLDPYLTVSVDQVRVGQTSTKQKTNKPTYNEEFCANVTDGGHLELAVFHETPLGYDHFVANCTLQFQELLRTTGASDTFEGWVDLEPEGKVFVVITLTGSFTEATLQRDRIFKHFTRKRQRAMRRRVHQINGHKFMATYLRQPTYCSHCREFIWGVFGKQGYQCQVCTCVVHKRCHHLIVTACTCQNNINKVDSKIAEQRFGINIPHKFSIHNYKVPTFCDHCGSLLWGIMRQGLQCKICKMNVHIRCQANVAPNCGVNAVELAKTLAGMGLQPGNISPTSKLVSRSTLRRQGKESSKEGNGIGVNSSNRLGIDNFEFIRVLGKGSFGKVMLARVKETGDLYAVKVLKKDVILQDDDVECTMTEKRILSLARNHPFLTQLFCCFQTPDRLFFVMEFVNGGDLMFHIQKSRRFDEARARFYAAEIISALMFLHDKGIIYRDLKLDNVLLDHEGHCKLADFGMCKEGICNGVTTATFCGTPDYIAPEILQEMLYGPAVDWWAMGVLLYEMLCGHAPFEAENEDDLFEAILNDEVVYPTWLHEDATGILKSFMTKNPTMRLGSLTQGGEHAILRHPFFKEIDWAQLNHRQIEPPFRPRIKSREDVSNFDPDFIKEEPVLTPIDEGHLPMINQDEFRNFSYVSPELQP
Sequence of protein kinase C delta (Q05655 whole entry): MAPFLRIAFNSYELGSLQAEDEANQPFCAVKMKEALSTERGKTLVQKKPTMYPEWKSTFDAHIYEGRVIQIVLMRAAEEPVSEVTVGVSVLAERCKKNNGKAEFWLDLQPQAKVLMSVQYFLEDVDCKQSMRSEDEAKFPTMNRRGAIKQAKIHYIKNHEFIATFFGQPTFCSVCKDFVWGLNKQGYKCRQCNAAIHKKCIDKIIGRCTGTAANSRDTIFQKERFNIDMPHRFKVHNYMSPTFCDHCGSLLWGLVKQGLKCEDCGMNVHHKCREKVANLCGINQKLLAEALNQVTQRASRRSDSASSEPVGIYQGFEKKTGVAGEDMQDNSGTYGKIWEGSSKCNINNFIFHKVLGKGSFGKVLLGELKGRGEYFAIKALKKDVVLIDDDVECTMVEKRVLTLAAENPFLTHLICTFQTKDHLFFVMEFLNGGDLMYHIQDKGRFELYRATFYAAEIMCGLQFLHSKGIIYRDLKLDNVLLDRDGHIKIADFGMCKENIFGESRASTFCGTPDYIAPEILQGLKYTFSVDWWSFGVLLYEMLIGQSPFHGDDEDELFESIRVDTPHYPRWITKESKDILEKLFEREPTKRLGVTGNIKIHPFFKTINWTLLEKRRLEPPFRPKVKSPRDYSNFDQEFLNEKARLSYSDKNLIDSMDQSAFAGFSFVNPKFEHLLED

As to `CN(C)CCCn1cc(C2=C(c3c[nH]c4ccccc34)C(=O)NC2=O)c2ccccc21` [3-[1-(3-dimethylaminopropyl)-indol-3-yl]-4-(1H-indol-3-yl)-1H-pyrrole-2,5-dione], the isozyme selectivity entry in the assay with PKC isozymes (Martiny-Baron et al. (1993)) was “slight selectivity for isozymes, alpha and beta versus delta, epsilon, and zeta; also recorded: no differences in the selectivity between alpha and beta-1 isozymes”; in the assay with PKC isozymes (Toullec et al. (1991)) it was “slight selectivity for the calcium dependent isozymes; also recorded: no isozyme selectivity between alpha, beta-1, beta-2, and gamma”.

`Cn1cc(C2=C(c3cn(CCOC4O[C@H](CO)[C@@H](O)[C@@H](N)[C@H]4O)c4ccccc34)C(=O)NC2=O)c2ccccc21` (some centres unmarked) [Example 67]: the IC50 (in general, the concentration that gives 50% inhibition) at protein kinase C zeta stood at 47 µM; at protein kinase C beta-2, 200 nM; on protein kinase C gamma, 8.2 µM; on protein kinase C delta, 4100 nM; on protein kinase C alpha, 6600 nM; on protein kinase C eta, 2600 nM. Further, the 50% inhibitory concentration (IC50) on protein kinase C epsilon came to 38000 nM; at protein kinase C beta-1, 300 nM.

On to `CC(=O)NC[C@H]1O[C@H](OCCn2cc(C3=C(c4cn(C)c5ccccc45)C(=O)NC3=O)c3ccccc32)C[C@@H]1O` [Example 3], for which the half-inhibitory concentration (IC50) at protein kinase C zeta amounted to 46 µM; on protein kinase C beta-2, 25 nM; on protein kinase C gamma, 4.4 µM; on protein kinase C delta it was 410 nM; at protein kinase C alpha it was 320 nM; at protein kinase C eta it was 1100 nM. Further, the IC50 came to 600 nM at protein kinase C epsilon and 36 nM at protein kinase C beta-1.

With `CC(=O)N1CCC(n2cc(C3=C(c4cn(C)c5ccccc45)C(=O)NC3=O)c3ccccc32)CC1` [Example 37, 3-(1-(1-Acetyl-piperidin-4-yl]-indol-3-yl)-4-(1-methyl-indol-3-yl)-pyrrole-2,5-dione], the concentration for half-maximal inhibition (IC50) stood at 20 µM on protein kinase C zeta; 20 nM at protein kinase C beta-2; 1 µM on protein kinase C gamma; 400 nM on protein kinase C delta; 300 nM on protein kinase C alpha; 100 nM at protein kinase C eta. Also, the figures for the IC50 on protein kinase C epsilon and on protein kinase C beta-1 were 400 nM and 9 nM, respectively.

Consider `Cn1cc(C2=C(c3cn(CCOC4O[C@H](CO)[C@@H](O)[C@@H](O)[C@H]4N=[N+]=[N-])c4ccccc34)C(=O)NC2=O)c2ccccc21` (some centres unmarked) [Example 60], for which the 50% inhibitory concentration (IC50) at protein kinase C zeta was 75 µM; at protein kinase C beta-2, 42 nM; at protein kinase C gamma it was 24 µM; on protein kinase C delta, 7400 nM; at protein kinase C alpha, 4500 nM; at protein kinase C eta, 3600 nM. In addition, the figures for the IC50 at protein kinase C epsilon and at protein kinase C beta-1 were 91000 nM and 180 nM, respectively.

Consider `Cn1cc(C2=C(c3cn(CCOC4O[C@H](CO)[C@@H](O)[C@@H](N=[N+]=[N-])[C@H]4O)c4ccccc34)C(=O)NC2=O)c2ccccc21` (some centres unmarked) [Example 59], for which the IC50 came to 48 µM at protein kinase C zeta; 110 nM at protein kinase C beta-2; 9 µM at protein kinase C gamma; 2800 nM on protein kinase C delta; 4500 nM on protein kinase C alpha; 1600 nM on protein kinase C eta. Also, the IC50 at protein kinase C epsilon was 31000 nM; at protein kinase C beta-1, 200 nM.

`Cn1cc(C2=C(c3cn(CCCCOC4C[C@H](O)[C@@H](CO)O4)c4ccccc34)C(=O)NC2=O)c2ccccc21` (some centres unmarked) [Example 56]: the IC50 on protein kinase C zeta turned out to be 49 µM; on protein kinase C beta-2, 39 nM; at protein kinase C gamma, 3.2 µM; at protein kinase C delta, 930 nM; at protein kinase C alpha, 1600 nM; on protein kinase C eta, 1300 nM. Further, the IC50 is 2400 nM on protein kinase C epsilon and 69 nM at protein kinase C beta-1.

On to `Cn1cc(C2=C(c3cn(C4CCN(CC5CC5)CC4)c4ccccc34)C(=O)NC2=O)c2ccccc21` [Example 39, 3-[1-N-(1-N-(Cyclopropylmethylene)-piperidin-4-yl)-indol-3-yl]-4-(1-N-(methyl)-indol-3-yl)-1H-pyrrole-2,5-dione], for which the IC50 at protein kinase C zeta was found to be 9 µM; at protein kinase C beta-2, 10 nM; at protein kinase C gamma, 0.4 µM; at protein kinase C delta it was 400 nM; at protein kinase C alpha, 300 nM; on protein kinase C eta, 50 nM. Further, the concentration for half-maximal inhibition (IC50) at protein kinase C epsilon worked out at 900 nM; at protein kinase C beta-1, 30 nM.

Consider `CC(=O)NCC1OC(OCCCCn2cc(C3=C(c4cn(C)c5ccccc45)C(=O)NC3=O)c3ccccc32)CC1OC(C)=O` (centres unmarked) [Example 55], for which the 50% inhibitory concentration (IC50) on protein kinase C zeta amounted to 45 µM; at protein kinase C beta-2, 50 nM; at protein kinase C gamma it was 4.2 µM; on protein kinase C delta, 950 nM; on protein kinase C alpha, 2300 nM; on protein kinase C eta it was 1200 nM. The IC50 worked out at 6600 nM at protein kinase C epsilon and 260 nM at protein kinase C beta-1.

`Cn1cc(C2=C(c3cn(C4CCOC4)c4ccccc34)C(=O)NC2=O)c2ccccc21` (centres unmarked) [Example 64]: the 50% inhibitory concentration (IC50) on protein kinase C zeta was 50 µM; at protein kinase C beta-2, 5 nM; on protein kinase C gamma it was 0.28 µM; on protein kinase C delta it was 160 nM; at protein kinase C alpha, 160 nM; on protein kinase C eta, 40 nM. Moreover, the values for the IC50 at protein kinase C epsilon and on protein kinase C beta-1 were 800 nM and 5 nM, respectively.
